ChEMBL document CHEMBL1129315, “Studies on selectin blockers. 2. Novel selectin blocker as potential therapeutics for inflammatory disorders” (J Med Chem, 1996)

How the values were obtained:
L-selectin = target: T1, L-selectin (Homo sapiens, UniProt P14151); experiment: Inhibitory concentration against blocking of Selectin L during migration of inflammatory cells to inflammatory site
T1 sequence (P14151 whole entry): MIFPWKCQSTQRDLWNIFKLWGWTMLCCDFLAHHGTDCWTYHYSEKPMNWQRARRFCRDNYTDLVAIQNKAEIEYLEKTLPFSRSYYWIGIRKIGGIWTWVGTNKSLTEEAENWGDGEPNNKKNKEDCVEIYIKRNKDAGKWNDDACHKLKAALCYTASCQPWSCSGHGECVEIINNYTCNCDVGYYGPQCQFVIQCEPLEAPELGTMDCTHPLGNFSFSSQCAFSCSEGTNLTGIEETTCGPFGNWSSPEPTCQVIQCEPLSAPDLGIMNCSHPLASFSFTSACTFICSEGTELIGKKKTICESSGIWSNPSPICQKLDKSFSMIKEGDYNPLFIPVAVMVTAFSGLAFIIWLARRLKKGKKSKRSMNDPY

P-selectin = target: T2, P-selectin (Homo sapiens, UniProt P16109); experiment: Inhibitory concentration against blocking of Selectin P during migration of inflammatory cells to inflammatory site
T2 sequence (P16109 whole entry): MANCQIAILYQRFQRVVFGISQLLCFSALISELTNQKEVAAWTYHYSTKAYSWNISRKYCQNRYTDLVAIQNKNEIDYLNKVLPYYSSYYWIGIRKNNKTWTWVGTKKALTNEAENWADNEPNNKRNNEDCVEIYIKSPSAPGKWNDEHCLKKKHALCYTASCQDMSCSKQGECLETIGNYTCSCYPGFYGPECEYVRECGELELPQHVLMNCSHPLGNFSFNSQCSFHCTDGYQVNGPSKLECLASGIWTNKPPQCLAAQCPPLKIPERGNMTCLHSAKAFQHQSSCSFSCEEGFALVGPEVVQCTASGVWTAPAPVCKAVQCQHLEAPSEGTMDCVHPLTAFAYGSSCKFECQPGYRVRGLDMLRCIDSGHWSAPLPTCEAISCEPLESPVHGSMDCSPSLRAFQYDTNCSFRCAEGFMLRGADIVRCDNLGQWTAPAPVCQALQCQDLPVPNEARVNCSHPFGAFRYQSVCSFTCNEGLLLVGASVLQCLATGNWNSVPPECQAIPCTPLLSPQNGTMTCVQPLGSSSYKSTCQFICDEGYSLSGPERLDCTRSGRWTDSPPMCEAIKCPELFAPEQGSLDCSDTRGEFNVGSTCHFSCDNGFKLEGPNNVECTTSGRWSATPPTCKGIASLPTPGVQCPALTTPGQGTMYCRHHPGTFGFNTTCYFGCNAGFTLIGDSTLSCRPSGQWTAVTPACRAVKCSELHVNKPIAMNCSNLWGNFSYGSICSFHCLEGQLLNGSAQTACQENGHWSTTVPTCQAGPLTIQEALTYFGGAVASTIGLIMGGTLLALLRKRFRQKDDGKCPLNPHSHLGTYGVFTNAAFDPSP

E-selectin = target: T3, E-selectin (Homo sapiens, UniProt P16581); experiment: Inhibitory concentration against blocking of E-selectin during migration of inflammatory cells to inflammatory site
T3 sequence (P16581 whole entry): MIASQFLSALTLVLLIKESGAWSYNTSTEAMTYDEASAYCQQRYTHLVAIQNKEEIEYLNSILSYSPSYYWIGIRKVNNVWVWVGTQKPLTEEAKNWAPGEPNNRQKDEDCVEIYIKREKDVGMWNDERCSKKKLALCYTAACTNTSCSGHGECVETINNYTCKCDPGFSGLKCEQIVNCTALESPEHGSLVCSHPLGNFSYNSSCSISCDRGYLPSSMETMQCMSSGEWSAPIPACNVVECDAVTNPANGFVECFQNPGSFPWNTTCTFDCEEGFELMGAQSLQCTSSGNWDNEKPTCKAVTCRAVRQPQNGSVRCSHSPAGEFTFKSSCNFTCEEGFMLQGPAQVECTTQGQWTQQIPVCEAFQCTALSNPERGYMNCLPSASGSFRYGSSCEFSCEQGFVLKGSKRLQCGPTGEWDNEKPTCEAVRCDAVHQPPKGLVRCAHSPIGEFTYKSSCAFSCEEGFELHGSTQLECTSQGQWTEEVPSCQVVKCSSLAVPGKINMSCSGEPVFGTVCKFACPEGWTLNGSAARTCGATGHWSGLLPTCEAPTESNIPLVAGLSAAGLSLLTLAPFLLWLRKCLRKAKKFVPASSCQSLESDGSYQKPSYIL

IC50 (L-selectin) | IC50 (P-selectin) | IC50 (E-selectin) | SMILES
> 1000 µM | 300 µM | > 1000 µM | CC1OC(OC2C(O)COC(CO)C2OC2OC(CO)C(O)C(OS(=O)(=O)O)C2O)C(O)C(O)C1O (stereo not given)
> 1000 µM | > 1000 µM |  | CC(=O)N[C@H]1[C@H]([C@H](O)[C@H](O)CO)O[C@@](O[C@H]2[C@@H](O)[C@@H](CO)O[C@@H](O[C@@H]([C@H](O[C@@H]3O[C@@H](C)[C@@H](O)[C@@H](O)[C@@H]3O)[C@H](C=O)NC(C)=O)[C@H](O)CO)[C@@H]2O)(C(=O)O)C[C@@H]1O [SIALYL LEWIS X]
